Results on eleven compounds are retold here after patent US20200405696A1, “INHIBITORS OF INDOLEAMINE 2,3-DIOXYGENASE AND/OR TRYPTOPHAN 2,3-DIOXYGENASE” (IDORSIA PHARMACEUTICALS LTD, priority 2018, published 2020).

Experiment [1] has as its target T1, Recombinant full-length human IDO1 (Homo sapiens, UniProt P14902).
T1 construct: Recombinant full-length human IDO1 with a N-terminal hexahistidine tag; hexahistidine (His6) (N); made in house; host or cells: E. coli
The experiment can be described thus: IDO1 enzymatic assay (NFK quantified by LCMS). It is filed as biochemical. Conditions: 2 nM enzyme, 5 μM L-tryptophan, pH6.5, 30 minutes pre-incubation at RT; mean values when measured multiple times; read-out: hIDO activity (IC50 in nM). Here is the method: 1) Testing Compounds for IDO Inhibitory Activity in an IDO1 Enzymatic Assay:
Recombinant full-length human IDO1 with a N-terminal hexahistidine tag expressed in E. coli and purified to homogeneity is incubated at a final concentration of 2 nM in assay buffer consisting of 37.5 mM phosphate buffer at pH6.5 supplemented with 10 mM ascorbic acid, 0.45 μM methylene blue, 50U/ml catalase, 0.01% BSA, and 0.01% Tween 20 (protocol modified from Seegers et al, JBS 2014). Example compounds are serially diluted in DMSO, further diluted in phosphate buffer, and added to the enzyme at final concentrations ranging from 10 μM to 0.5 nM. The final DMSO concentration is 0.6%. Following a pre-incubation of 30 minutes at RT, the reaction is started by the addition of L-tryptophan at a final concentration of 5 μM in assay buffer. After 30 minutes of incubation at RT, 3 μL of the 20 μl reaction mixture are transferred to a 384 deep well plate containing 25 μL of deionized water. 100 μl of 200 nM L-Tryptophan-(indole-d5) in cold 100% methanol are added followed by a 10 minutes centrifugation at 3220×g at 4° C. An additional 75 μL of deionized water are then added followed by a 10 minutes centrifugation at 3220×g at 4° C. The product of the reaction N′-Formylkynurenine (NFK) is quantified by LCMS and normalized to the L-Tryptophan-(indole-d5) signal. Samples with 0.6% DMSO (0% effect) and a TDO/IDO inhibitor (100% effect) are used as control samples to set the parameters for the non-linear regression necessary for the determination of the half-maximal inhibitory concentration (IC50) for each compound. For each compound concentration the percentage of activity compared to 0% and 100% effect is calculated as average±STDEV (each concentration measured in duplicate). IC50 values and curves are generated with XLfit software (IDBS) using Dose-Response One Site model 203 (four parameter logistic curve model). The calculated IC50 values may fluctuate depending on the daily assay performance. Fluctuations of this kind are known to those skilled in the art. When compounds are measured multiple times, mean values are given.

Experiment [2] deals with T2, Recombinant human TDO comprising amino acids 19-407 (Homo sapiens, UniProt P48775).
T2 construct: Recombinant human TDO comprising amino acids 19-407 with a N-terminal hexahistidine tag; hexahistidine (His6) (N); made in house; host or cells: E. coli
Kind of experiment: TDO2 enzymatic assay (NFK quantified by LCMS). It is filed as biochemical. The settings on record: 15 nM enzyme, 200 μM L-tryptophan, pH7, 30 minutes pre-incubation at RT; mean values when measured multiple times; read-out: hTDO activity (IC50 in nM). On the procedure:
2) Testing Compounds for TDO Inhibitory Activity in a TDO2 Enzymatic Assay:
Recombinant human TDO comprising amino acids 19-407 with a N-terminal hexahistidine tag expressed in E. coli and purified to homogeneity is incubated at a final concentration of 15 nM in assay buffer consisting of 75 mM phosphate buffer at pH7 supplemented with 100 μM ascorbic acid, 50U/ml Catalase, 0.01% BSA, and 0.01% Tween 20 (protocol modified from Seegers et al, JBS 2014). Example compounds are serially diluted in DMSO, further diluted in phosphate buffer, and added to the reaction mixture at final concentrations ranging from 10 μM to 0.5 nM. The final DMSO concentration is 0.6%. Following a pre-incubation of 30 minutes at RT, the reaction is started by the addition of L-tryptophan at a final concentration of 200 μM in assay buffer. After 30 minutes of incubation at RT, 3 μL of the reaction mixture are transferred to a 384 deep well plate containing 25 μL of deionized water. 100 μl of 200 nM L-Tryptophan-(indole-d5) in cold 100% methanol are added followed by a 10 minutes centrifugation at 3220×g at 4° C. An additional 75 μL of deionized water are then added followed by a 10 minutes centrifugation at 3220×g at 4° C. The product of the reaction N′-Formylkynurenine (NFK) is quantified by LCMS and normalized to the L-Tryptophan-(indole-d5) signal. Samples with 0.6% DMSO (0% effect) and a TDO/IDO inhibitor (100% effect) are used as control samples to set the parameters for the non-linear regression necessary for the determination of the half-maximal inhibitory concentration (IC50) for each compound. For each compound concentration the percentage of activity compared to 0% and 100% effect is calculated as average±STDEV (each concentration measured in duplicate). IC50 values and curves are generated with XLfit software (IDBS) using Dose-Response One Site model 203 (four parameter logistic curve model). The calculated IC50 values may fluctuate depending on the daily assay performance. Fluctuations of this kind are known to those skilled in the art. When compounds are measured multiple times, mean values are given.

T1 sequence (P14902 whole entry): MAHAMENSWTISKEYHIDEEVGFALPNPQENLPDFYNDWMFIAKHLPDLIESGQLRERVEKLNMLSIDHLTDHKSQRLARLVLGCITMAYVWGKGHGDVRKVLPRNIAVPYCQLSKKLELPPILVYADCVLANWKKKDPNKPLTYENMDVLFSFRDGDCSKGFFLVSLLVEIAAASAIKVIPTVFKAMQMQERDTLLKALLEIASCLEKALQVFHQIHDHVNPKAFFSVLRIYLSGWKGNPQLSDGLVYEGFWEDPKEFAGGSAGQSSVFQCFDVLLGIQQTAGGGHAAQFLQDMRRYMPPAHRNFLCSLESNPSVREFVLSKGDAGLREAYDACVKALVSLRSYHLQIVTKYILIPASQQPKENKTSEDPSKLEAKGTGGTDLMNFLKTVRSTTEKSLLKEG
T2 sequence (P48775 19-406 limits assumed): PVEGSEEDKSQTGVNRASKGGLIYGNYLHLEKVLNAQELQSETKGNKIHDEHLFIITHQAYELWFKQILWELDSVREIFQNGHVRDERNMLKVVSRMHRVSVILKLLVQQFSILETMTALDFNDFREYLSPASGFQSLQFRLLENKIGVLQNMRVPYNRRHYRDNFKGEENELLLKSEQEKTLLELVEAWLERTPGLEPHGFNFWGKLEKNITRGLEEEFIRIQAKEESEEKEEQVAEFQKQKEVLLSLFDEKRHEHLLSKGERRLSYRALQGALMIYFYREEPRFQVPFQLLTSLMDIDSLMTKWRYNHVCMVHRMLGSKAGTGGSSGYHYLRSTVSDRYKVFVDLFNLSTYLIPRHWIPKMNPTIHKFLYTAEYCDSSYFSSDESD

As for `Oc1ccc(-n2cc(C(O)c3c([C@@H]4C[C@H]4F)sc4cncn34)nn2)cc1Cl` (relative stereo) [Example 328, 2-Chloro-4-(4-{[2-(trans-2-fluoro-cyclopropyl)-imidazo[5,1-b]thiazol-3-yl]-hydroxy-methyl}-[1,2,3]triazol-1-yl)-phenol], the IC50 is 13.1 nM in experiment [1] and more than 10200 nM in experiment [2].

For `COc1ccc(-n2cc(C(O)c3c(-c4ccccc4)sc4cncn34)nn2)cc1` (racemic) [Example 249, rac-[1-(4-Methoxy-phenyl)-1H-[1,2,3]triazol-4-yl]-(2-phenyl-imidazo[5,1-b]thiazol-3-yl)-methanol], the IC50 is 74.8 nM in experiment [1] and more than 10200 nM in experiment [2].

For `COc1ccc(-n2cc(C(O)c3c(C)sc4cncn34)cn2)cc1` (racemic) [Example 97, rac-[1-(4-Methoxy-phenyl)-1H-pyrazol-4-yl]-(2-methyl-imidazo[5,1-b]thiazol-3-yl)-methanol], the values for the IC50 in experiment [1] and in experiment [2] were 121 nM and 1940 nM, respectively.

`Cc1ccccc1-n1cc(C(O)c2c(C3CC3)sc3cncn23)nn1` (racemic) [Example 3, rac-(2-Cyclopropyl-imidazo[5,1-b]thiazol-3-yl)-(1-o-tolyl-1H-[1,2,3]triazol-4-yl)-methanol]: the IC50 in experiment [1] is 49.2 nM; in experiment [2], more than 10200 nM.

Regarding `NC(=O)Nc1ccc(-n2cc(C(O)c3c(C4CC4)sc4cncn34)nn2)cc1` (racemic) [Example 109, rac-(4-{4-[(2-Cyclopropyl-imidazo[5,1-b]thiazol-3-yl)-hydroxy-methyl]-[1,2,3]triazol-1-yl}-phenyl)-urea], the IC50 turned out to be 24 nM in experiment [1] and 7110 nM in experiment [2].

Turning to `Cc1c([C@H](O)c2c(C3CC3)sc3cncn23)nnn1-c1ccccc1` [Example 101a, (R)-(2-Cyclopropyl-imidazo[5,1-b]thiazol-3-yl)-(5-methyl-1-phenyl-1H-[1,2,3]triazol-4-yl)-methanol], the IC50 in experiment [1] worked out at 6.31 nM; in experiment [2], 4410 nM.

Regarding `OC(c1cn(-c2ccc(OCC3CCCCO3)cc2)nn1)c1c(C2CC2)sc2cncn12` (stereo not shown) [Example 143, (2-Cyclopropyl-imidazo[5,1-b]thiazol-3-yl)-{1-[4-(tetrahydro-pyran-2-ylmethoxy)-phenyl]-1H-[1,2,3]triazol-4-yl}-methanol], the results for the IC50 in experiment [1] and in experiment [2] were 18.1 nM and more than 10200 nM, respectively.

Regarding `CC(C)C(=O)Nc1ccc(-n2cc([C@H](O)c3c(C4CC4)sc4cncn34)nn2)cc1` [Example 192a, N-(4-{4-[(R)-(2-Cyclopropyl-imidazo[5,1-b]thiazol-3-yl)-hydroxy-methyl]-[1,2,3]triazol-1-yl}-phenyl)-isobutyramide], the IC50 was 3.71 nM in experiment [1] and more than 10200 nM in experiment [2].

As for `OC(c1cn(-c2ccc(OCC3COC3)cc2)nn1)c1c(C2CC2)sc2cncn12` (racemic) [Example 88, rac-(2-Cyclopropyl-imidazo[5,1-b]thiazol-3-yl)-{1-[4-(oxetan-3-ylmethoxy)-phenyl]-1H-[1,2,3]triazol-4-yl}-methanol], the IC50 is 12.6 nM in experiment [1] and more than 10200 nM in experiment [2].

As to `O=S1(=O)CCC(COc2ccc(-n3cc(C(O)c4c(C5CC5)sc5cncn45)nn3)cc2)CC1` (racemic) [Example 147, rac-(2-Cyclopropyl-imidazo[5,1-b]thiazol-3-yl)-{1-[4-(1,1-dioxo-hexahydro-1I6-thiopyran-4-ylmethoxy)-phenyl]-1H-[1,2,3]triazol-4-yl}-methanol], the IC50 in experiment [1] was 12.9 nM; in experiment [2], more than 10200 nM.

For the compound `CC(C)(O)CCOc1ccc(-n2cc(C(O)c3c(C4(C)CC4)sc4cncn34)nn2)cc1Cl` (racemic) [Example 303, rac-4-[2-Chloro-4-(4-{hydroxy-[2-(1-methyl-cyclopropyl)-imidazo[5,1-b]thiazol-3-yl]-methyl}-[1,2,3]triazol-1-yl)-phenoxy]-2-methyl-butan-2-ol], the IC50 in experiment [1] is 23.6 nM; in experiment [2], more than 10200 nM.
